The source of these data is patent US20050074901A1, “Methods and assays for detecting and quantifying the human p53 inducible gene protein” (priority 2002, published 2005).

Molecules are shown by their SMILES. Like-named read-outs stand apart in the source and are kept apart here.

For experiment [1], the system named is PIG3. The following applies: cited from earlier work.
The test system of experiment [2] is PIG3. In words: Adriamycin upregulation of PIG3 over time and dose (PIG3 ELISA, FIG. 4A). Type of experiment: cell-based, human. The source says: The invention features a PIG3 ELISA that is a “sandwich” enzyme immunoassay employing two mouse monoclonal antibodies and methods for using the assay. A monoclonal antibody, specific for the human PIG3 protein, is immobilized onto the surface of microtiter wells provided. A kit for the immunoassay, comprising two monoclonal antibodies X1155P and X1156M, is available from Exalpha Biologicals, Inc. in Boston, Mass. As the Frontier Assay Kit. The sample to be assayed and the biotinylated detector monoclonal antibody are pipetted into the wells and allowed to incubate for two hours, during which time any PIG3 present binds to the capture and detecting antibodies. […]
The horseradish peroxidase catalyzes the conversion of the chromogenic substrate tetra-methylbenzidine (TMB) from a colorless solution to a blue solution (or yellow after the addition of stop reagent), the intensity of which is proportional to the amount of PIG3 protein in the sample. The colored reaction product is quantified using a spectrophotometer.
Quantitation is achieved by the construction of a standard curve using known concentrations of PIG3 (provided lyophilized). By comparing the absorbance obtained from a sample containing an unknown amount of PIG3 with that obtained from the standards, the concentration of PIG3 in the sample is determined. […]
(An ELISA detects its analyte on a solid surface through an enzyme-linked reagent.)

With `COc1cccc2c1C(=O)c1c(O)c3c(c(O)c1C2=O)C[C@@](O)(C(=O)CO)C[C@@H]3O[C@H]1C[C@H](N)[C@H](O)[C@H](C)O1` [Adriamycin, adriamycin], the PIG3 induction result with PIG3 [1] (cell lines with wild-type p53 genes) was “strongly induced”; in the experiment on PIG3 [1] (cell with mutant p53), “not in the cell with mutant p53”. For the same compound, the PIG3 level entry in the experiment with PIG3 [2] is given as “upregulation of PIG3”.
